For orientation: IC50 means the point on the concentration scale where inhibition reaches its midpoint. In general, Hill slope refers to a measure of the steepness of the concentration-response curve.

Assay [1] concerns the target T1, human 5-HT3A receptors (Homo sapiens, UniProt P46098).
T1 construct: expressed in transfected cells; host or cells: Xenopus laevis oocytes (cRNA from pGEMHE)
T1 sequence (P46098 24-478): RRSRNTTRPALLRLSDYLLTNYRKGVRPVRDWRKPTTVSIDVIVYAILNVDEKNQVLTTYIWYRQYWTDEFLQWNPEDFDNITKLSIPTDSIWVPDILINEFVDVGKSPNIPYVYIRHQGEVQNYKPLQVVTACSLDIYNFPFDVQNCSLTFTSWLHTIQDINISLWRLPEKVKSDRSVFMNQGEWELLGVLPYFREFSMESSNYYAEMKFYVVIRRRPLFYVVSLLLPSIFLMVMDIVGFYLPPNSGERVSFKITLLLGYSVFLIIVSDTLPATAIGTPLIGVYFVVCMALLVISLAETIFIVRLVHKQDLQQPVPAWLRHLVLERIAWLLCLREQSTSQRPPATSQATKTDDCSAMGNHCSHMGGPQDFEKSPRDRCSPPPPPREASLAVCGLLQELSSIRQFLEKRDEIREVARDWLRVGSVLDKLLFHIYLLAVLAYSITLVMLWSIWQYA
Put plainly: Two-electrode voltage clamp of 5-HT-induced currents in Xenopus oocytes, incl. co-application. It counts as cell-based. The procedure:
(§1) Stage V and VI oocytes were injected with 50 nl of ∼300 ng μl^−1 cRNA, and currents were recorded 1–4 days post-injection. A ratio of 1:3 (A:B) was used for the expression of heteromeric 5-HT3 receptors.
(§2) Xenopus laevis oocyte positive females were purchased from NASCO (Fort Atkinson, Wisconsin, USA) and maintained according to standard methods.
(§3) Currents were filtered at a frequency of 1 kHz. Micro-electrodes were fabricated from borosilicate glass (GC120TF-10, Harvard Apparatus, Edenbridge, Kent, UK) using a two stage horizontal pull (P-87, Sutter Instrument Company, California, USA) and filled with 3 M KCl. […] Oocytes were perfused with saline at a rate of 15 ml min^−1. Drug application was via a simple gravity fed system calibrated to run at the same rate. Extracellular saline contained (mM), 96 NaCl, 2 KCl, 1 MgCl2 and 5 mM HEPES; adjusted to pH 7.4 with NaOH.
(§4) Analysis and curve fitting was performed using Prism V3.02 (GraphPad Software, San Diego, California, USA, www.graphpad.com). Concentration-response data for each oocyte was normalised to the maximum current for that oocyte. For inhibition curves, antagonists were routinely co-applied in the presence of agonist. For PXN, oocytes were also pre-treated with the compound for 20 s. A 2 min wash was used between drug applications. The mean and S.E.M. for a series of oocytes was plotted against agonist or antagonist concentration and iteratively fitted (GraphPad Prism v3.02) to the following Hill equation:(1) IA=Imin+Imax−Imin/1+10^nH(logA50−logA) where A is the concentration of ligand present; IA is the current in the presence of ligand concentration A; Imin is the current when A = 0; Imax is the current when A = ∞ , A50 is the concentration of A which evokes a current equal to (Imax + Imin)/2; and nH is the Hill coefficient. Results are presented as mean ± S.E.M.. Statistical analysis was performed using ANOVA in conjunction with a Dunnett’s post-hoc test.
97) • Scenario 1: Where compounds share a binding site it was assumed that the extent of binding would be determined by a competitive interaction between the compounds such that the proportion of binding sites occupied (Pocc) in the presence of two competing compounds is given by the following expression: (2) Pocc=AKA+BKB/1+AKA+BKB where A and B are the concentrations of two ligands and KA and KB are their affinity constants respectively.
In each individual experiment, for each combination of inhibitors, data values were obtained for IA, IB and IAB. From IA and IB predicted values of IAB1 and IAB2 were also derived. A two-way ANOVA was performed on values of IAB, IAB1 and IAB2 in which the distinction between IAB, IAB1 and IAB2 was treated as a fixed factor and the variation in levels of inhibition between experiments was treated as a random factor. Where the ANOVA indicated a significant difference (P < 0.05) between IAB, IAB1 and IAB2 a post-hoc analysis was carried out using the Waller–Duncan method to identify homogenous subsets with a significance level of 0.05 and a Type I /Type II error ratio if 100.
Our models were based on the following assumptions: 1. that the channel blocking compounds only effect the response that is seen when the channel is open. […] In the case of condition 5 it is possible that the binding of one compound may prevent access of another to its own site. However, in practice this will not influence the analysis since the functional consequence of the binding of both compounds compared to one will be the same, namely complete channel blockade.
In general terms: Two-electrode voltage clamp holds a large cell at a set potential and records current.

Assay [2] concerns the target T2, human 5-HT3AB receptors (Homo sapiens, UniProt O95264+P46098).
T2 construct: expressed in transfected cells; host or cells: Xenopus laevis oocytes (cRNA from pGEMHE)
T2 sequence (P46098 24-478): T1 sequence (P46098 24-478)
T2 sequence (O95264 22-441): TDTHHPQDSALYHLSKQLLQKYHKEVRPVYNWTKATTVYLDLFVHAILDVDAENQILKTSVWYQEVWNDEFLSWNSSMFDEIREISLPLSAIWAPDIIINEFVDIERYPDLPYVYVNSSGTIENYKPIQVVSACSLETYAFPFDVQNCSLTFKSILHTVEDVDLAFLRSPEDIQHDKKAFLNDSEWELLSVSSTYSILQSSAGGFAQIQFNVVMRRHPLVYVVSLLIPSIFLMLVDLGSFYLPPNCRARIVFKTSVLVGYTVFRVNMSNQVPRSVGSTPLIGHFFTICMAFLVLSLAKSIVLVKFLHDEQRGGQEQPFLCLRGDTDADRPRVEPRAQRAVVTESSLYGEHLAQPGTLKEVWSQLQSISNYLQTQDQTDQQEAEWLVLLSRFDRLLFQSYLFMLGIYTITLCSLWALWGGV
Put plainly: Two-electrode voltage clamp of 5-HT-induced currents in Xenopus oocytes. The assay is classed as cell-based. The procedure: as §1, §2, §3, §4

For assay [3], the target named is glycine α1β receptors. More on the design: method as in Yang et al., 2007. The settings on record: ref Yang et al., 2007; cited from earlier work.
In assay [4] the target is glycine α1 receptors. More on the design: method as in Yang et al., 2007. The settings on record: ref Yang et al., 2007; cited from earlier work.
[5] abbreviates: abstract, 5-HT-induced responses, Xenopus oocytes, read-out: IC50.
Setting [6] is: read-out: inhibition at the highest concentration used.

Where two headings read alike, the source gives them in different places.

As for `C[C@@H]1C(=O)O[C@H]2C[C@@]34[C@H]5C[C@@H](C(C)(C)C)[C@]36[C@@H](OC(=O)[C@@H]6O)O[C@@]4(C(=O)O5)[C@]21O` [GA, ginkgolide A], the “inhibition (in words)” value in assay [1] (1 mM, seen in the 5-HT3A receptor only) is given as “minimal inhibition”. Moreover, the IC50 was above 1 mM in assay [1] (setting [5]); above 1 mM in assay [1] (inhibition of 5-HT EC50 response (1.7 μM 5-HT), oocytes, read-out: IC50); above 1 mM in assay [2] (setting [5]); above 1 mM in assay [2] (inhibition of 5-HT EC50 response (28 μM 5-HT), oocytes, read-out: IC50). Also, the inhibition at 1000 µM in assay [1] (setting [6]) and in assay [2] (setting [6]) was at most 50% in each case.

With `CC(C)(O)[C@@H]1[C@H]2OC(=O)[C@@H]1[C@]1(O)C[C@H]3O[C@]34C(=O)O[C@H]2[C@]14C` [PTN, picrotin], the half-inhibitory concentration (IC50) is 0.47 mM in assay [1]; 2.9 mM in assay [2] (IC50, inhibition of 5-HT EC50 response (28 μM 5-HT), oocytes); 2.95 mM in assay [2] (pIC50, inhibition of 5-HT EC50 response (28 μM 5-HT), oocytes); around 0.03 mM in assay [3]; around 0.005 mM in assay [4]. In addition, the “ratio of current amplitudes at +40 mV relative to −40 mV (voltage-dependence)” value in assay [1] (compared with absence of antagonist, Fig. 2E) is recorded as “unaltered”. Besides, the Hill slope in assay [1] (concentration-inhibition curve, 1.7 μM 5-HT) worked out at 1.33 ± 0.15; in assay [2] (concentration-inhibition curve, 28 μM 5-HT), 0.99 ± 0.07.

(Values after article PMC3070799 (Neuropharmacology, 2011).)
